{"source": "patent US20220168392A1", "about": "(priority 2019, published 2022)", "key": {"[1]": {"test_system": "CD2F1 mice exposed to TBI (7 Gy)", "assay": "Circulating biomarkers (EPO, FLT3 ligand, MMP9, VCAM1, E-Selectin, sP-Selectin) after 7 Gy TBI", "type": "in vivo, mouse", "procedure": "Harvesting blood and tissues for various molecular assays: RWJ-800088 (0.3 mg/kg) or saline (n=6 per group) was administered SC 24 hour prior to irradiation. The experimental animals received either 0 or 7 Gy radiation (non-lethal dose) in the AFRRI Co-60 gamma radiation facility. […] The femurs and sterna were then collected and processed as described below."}, "Rat": {"test_system": "Rat", "assay": "Maximum platelet elevation relative to baseline in normal healthy rats, single escalating doses", "type": "in vivo", "set-up": "key to pharmacodynamics (PD) effect class of the dose (beneficial effects on survival): **: large pharmacodynamics (PD) effect; *: modest effect", "details": "for Rat Max Platelet Ratio: TOX6984", "description": "The ratio of the maximum platelet counts to the baseline platelet counts following single escalating doses of RWJ-800088 to mice, rats, dogs, rhesus monkeys and human healthy volunteers is shown in Table 5. The dose required to achieve a 2-3.5-fold elevation in humans is ˜100-fold lower compared to mice, ˜1,000-fold lower compared to rats and >10,000-fold lower compared to canines and NHPs. […] The species differences in potency has been described for other TPO mimetics in the literature and is attributed to differences in receptor affinity (Erickson-Miller C L, et al. Discovery and characterization of a selective, nonpeptidyl thrombopoietin receptor agonist. Exp. Hematol. 2005; 33:85-93). […] It is discovered that the dose of RWJ-800088 that produces a survival benefit and protects against vascular and organ injury is the dose that produces a 2-4 fold elevation of platelets (Table 6)."}, "[2]": {"test_system": "CD2F1 male mice exposed to TBI", "assay": "30-day survival after total body irradiation (TBI) in CD2F1 mice", "type": "in vivo, mouse", "details": "for Survival Differential (Treatment-Vehicle) / Survival treatment: CD2F1 M"}, "[3]": {"details": "9.25 Gy, 0.3 mg/kg single dose, Post 4 hr"}, "[4]": {"details": "9.25 Gy, 0.3 mg/kg single dose, Pre −24 hr"}, "[5]": {"details": "9.3 Gy, 0.3 mg/kg single dose, Post 24 hr"}, "[6]": {"details": "9.3 Gy, 1 mg/kg single dose, Post 24 hr"}, "[7]": {"details": "9.35 Gy, 0.1 mg/kg single dose, Post 24 hr"}, "[8]": {"details": "9.35 Gy, 0.3 mg/kg single dose, Post 24 hr, listed as TPOm, 0.3 mg/kg"}, "[9]": {"details": "9.35 Gy, 0.3 mg/kg, 2 doses 12 hours apart, Post, first dose 24 hr"}, "[10]": {"details": "9.35 Gy, 0.3 mg/kg, 3 doses 8 hours apart, Post, first dose 24 hr"}, "[11]": {"details": "9.35 Gy, 1 mg/kg single dose, Post 24 hr"}, "[12]": {"details": "9.35 Gy, 2 mg/kg single dose, Post 24 hr"}, "[13]": {"details": "9.35 Gy, 3 mg/kg single dose, Post 24 hr"}, "[14]": {"details": "9.75 Gy, 0.1 mg/kg single dose, Post 4 hr"}, "[15]": {"details": "9.75 Gy, 0.1 mg/kg single dose, Pre −24 hr"}, "[16]": {"details": "9.75 Gy, 0.3 mg/kg single dose, Post 4 hr"}, "[17]": {"details": "9.75 Gy, 0.3 mg/kg single dose, Pre −2 hr"}, "[18]": {"details": "9.75 Gy, 0.3 mg/kg single dose, Pre −12 hr"}, "[19]": {"details": "9.75 Gy, 0.3 mg/kg single dose, Pre −24 hr, listed as TPOm, 0.3 mg/kg"}, "[20]": {"details": "9.75 Gy, 1 mg/kg single dose, Post 4 hr, listed as TPOm, 1 mg/kg"}, "[21]": {"details": "9.75 Gy, 1 mg/kg single dose, Post 8 hr"}, "[22]": {"details": "9.75 Gy, 1 mg/kg single dose, Post 12 hr"}, "[23]": {"details": "9.75 Gy, 1 mg/kg single dose, Pre −24 hr"}, "[24]": {"details": "9.75 Gy, 2 mg/kg single dose, Pre −24 hr"}, "[25]": {"details": "9.75 Gy, 3 mg/kg single dose, Post 4 hr"}, "[26]": {"details": "9.75 Gy, 3 mg/kg single dose, Pre −24 hr"}, "[27]": {"details": "10.5 Gy, 0.1 mg/kg single dose, Pre −24 hr"}}, "note": "Values joined by “and” are separate entries in the source; they are usually repeats but may differ in a detail not shown here. Identical values can stand only once. Square brackets hold non-standard residues; d marks the D form. * marks the point of attachment. 2Nal = N[C@@H](Cc1ccc2ccccc2c1)C(=O)O; Propionyl = CCC(=O)*; Sar = CNCC(=O)O", "data": [{"substance": "methoxypolyethyleneglycol20000-propionyl-L-Isoleucyl-L-Glutamyl-Glycyl-L-Prolyl-L-Threonyl-L-Leucyl-L-Arginyl-L-Glutaminyl-L-2-Naphthylalanyl-L-Leucyl-L-Alanyl-L-Alanyl-L-Arginyl-Sarcosyl-Ne-(methoxypolyethyleneglycol20000-propionyl-L-Isoleucyl-L-Glutamyl-Glycyl-L-Prolyl-L-Threonyl-L-Leucyl-L-Arginyl-L-Glutaminyl-L-2-Naphthylalanyl-L-Leucyl-L-Alanyl-L-Alanyl-L-Arginyl-Sarcosyl-)-Lysinamide ({mPEG 20 kDa-Propionyl}-IEGPTLRQ[2Nal]LAAR[Sar]K-NH2; also: dimer: second identical mPEG-propionyl chain on Lys Nε of C-terminal lysinamide) [RWJ-800088]", "values": [{"measurement": "circulating levels of erythropoietin (EPO) vs vehicle treated irradiated mice", "setting": "[1]; 7 Gy, 0.3 mg/kg 24 h pre-TBI (FIG. 5A)", "result": "significantly (p<0.0001) lower"}, {"measurement": "circulating levels of FLT3 ligand vs vehicle treated irradiated mice", "setting": "[1]; 7 Gy, 0.3 mg/kg 24 h pre-TBI (FIG. 5B)", "result": "significantly (p<0.0001) lower"}, {"measurement": "circulating levels of sP-Selectin vs vehicle", "setting": "[1]; days 2, 3, 7, and 15 post-irradiation", "result": "statistically significant increases (p<0.0001)"}, {"measurement": "circulating levels of E-Selectin vs vehicle", "setting": "[1]; days 3, 7 15 and 30 post-irradiation", "result": "statistically significant increases (p<0.0001)"}, {"measurement": "circulating levels of MMP-9 vs vehicle", "setting": "[1]; days 7 and 15 post-irradiation", "result": "statistically significant increases (p<0.0001)"}, {"measurement": "circulating levels of VCAM-1 vs vehicle", "setting": "[1]; days 15 and 30 post-irradiation", "result": "statistically significant increases (p<0.0001)"}, {"measurement": "Average of the Maximum Platelet Elevation/Baseline Platelet Counts", "setting": "Rat; Rat, dose 3000 μg/kg", "result": 3.1}, {"measurement": "pharmacodynamics (PD) effect class of the dose (beneficial effects on survival)", "setting": "Rat; Rat, dose 3000 μg/kg", "result": "**"}, {"measurement": "Dose for 2.0-4x Platelet Elevation in Healthy Subjects", "setting": "Rat; Rats", "result": "≥3", "unit": "mg/kg"}, {"measurement": "Rat Max Platelet Ratio", "setting": "Rat; dose 100 μg/kg", "result": "1.0 ± 0.2"}, {"measurement": "Rat Max Platelet Ratio", "setting": "Rat; dose 300 μg/kg", "result": "1.7 ± 0.3"}, {"measurement": "Rat Max Platelet Ratio", "setting": "Rat; dose 3000 μg/kg", "result": "3.2 ± 0.6"}, {"measurement": "dose dependence of survival", "setting": "[2]; CD2F1, 24 hours post-TBI (9.3 Gy), doses 0.1 to 3 mg/kg (FIG. 12A)", "result": "increase in survival from 0.1 to 1 mg/kg and then a slight reduction in the survival benefit at 2 and 3 mg/kg"}, {"measurement": "Survival Differential (Treatment-Vehicle)", "setting": "[2]; [3]", "result": 53, "unit": "%"}, {"measurement": "Survival treatment", "setting": "[2]; [3]", "result": 88, "unit": "%"}, {"measurement": "Survival Differential (Treatment-Vehicle)", "setting": "[2]; [4]", "result": 41, "unit": "%"}, {"measurement": "Survival treatment", "setting": "[2]; [4]", "result": 83, "unit": "%"}, {"measurement": "Survival Differential (Treatment-Vehicle)", "setting": "[2]; [5]", "result": 42, "unit": "%"}, {"measurement": "Survival treatment", "setting": "[2]; [5]", "result": 71, "unit": "%"}, {"measurement": "Survival Differential (Treatment-Vehicle)", "setting": "[2]; [6]", "result": 50, "unit": "%"}, {"measurement": "Survival treatment", "setting": "[2]; [6]", "result": 79, "unit": "%"}, {"measurement": "Survival Differential (Treatment-Vehicle)", "setting": "[2]; [7]", "result": 25, "unit": "%"}, {"measurement": "Survival treatment", "setting": "[2]; [7]", "result": 58, "unit": "%"}, {"measurement": "Survival treatment", "setting": "[2]; 9.35 Gy, 0.3 mg/kg single dose, Post 24 hr, 0.3 mg/kg", "result": 71, "unit": "%"}, {"measurement": "Survival Differential (Treatment-Vehicle)", "setting": "[2]; [8]", "result": "25% and 17%"}, {"measurement": "Survival treatment", "setting": "[2]; [8]", "result": "58% and 71%"}, {"measurement": "Survival Differential (Treatment-Vehicle)", "setting": "[2]; [9]", "result": 21, "unit": "%"}, {"measurement": "Survival treatment", "setting": "[2]; [9]", "result": 54, "unit": "%"}, {"measurement": "Survival Differential (Treatment-Vehicle)", "setting": "[2]; [10]", "result": 8, "unit": "%"}, {"measurement": "Survival treatment", "setting": "[2]; [10]", "result": 50, "unit": "%"}, {"measurement": "Survival Differential (Treatment-Vehicle)", "setting": "[2]; [11]", "result": 29, "unit": "%"}, {"measurement": "Survival treatment", "setting": "[2]; [11]", "result": 63, "unit": "%"}, {"measurement": "Survival Differential (Treatment-Vehicle)", "setting": "[2]; [12]", "result": 17, "unit": "%"}, {"measurement": "Survival treatment", "setting": "[2]; [12]", "result": 50, "unit": "%"}, {"measurement": "Survival Differential (Treatment-Vehicle)", "setting": "[2]; [13]", "result": 13, "unit": "%"}, {"measurement": "Survival treatment", "setting": "[2]; [13]", "result": 46, "unit": "%"}, {"measurement": "Survival Differential (Treatment-Vehicle)", "setting": "[2]; [14]", "result": 21, "unit": "%"}, {"measurement": "Survival treatment", "setting": "[2]; [14]", "result": 42, "unit": "%"}, {"measurement": "Survival Differential (Treatment-Vehicle)", "setting": "[2]; [15]", "result": 92, "unit": "%"}, {"measurement": "Survival treatment", "setting": "[2]; [15]", "result": 92, "unit": "%"}, {"measurement": "Survival Differential (Treatment-Vehicle)", "setting": "[2]; [16]", "result": 42, "unit": "%"}, {"measurement": "Survival treatment", "setting": "[2]; [16]", "result": 63, "unit": "%"}, {"measurement": "Survival Differential (Treatment-Vehicle)", "setting": "[2]; [17]", "result": 58, "unit": "%"}, {"measurement": "Survival treatment", "setting": "[2]; [17]", "result": 92, "unit": "%"}, {"measurement": "Survival Differential (Treatment-Vehicle)", "setting": "[2]; [18]", "result": 96, "unit": "%"}, {"measurement": "Survival treatment", "setting": "[2]; [18]", "result": 100, "unit": "%"}, {"measurement": "Survival Differential (Treatment-Vehicle)", "setting": "[2]; [19]", "result": "92% and 96%"}, {"measurement": "Survival treatment", "setting": "[2]; [19]", "result": "92% and 100%"}, {"measurement": "Survival Differential (Treatment-Vehicle)", "setting": "[2]; [20]", "result": "67% and 60%"}, {"measurement": "Survival treatment", "setting": "[2]; [20]", "result": "88% and 80%"}, {"measurement": "Survival Differential (Treatment-Vehicle)", "setting": "[2]; [21]", "result": 80, "unit": "%"}, {"measurement": "Survival treatment", "setting": "[2]; [21]", "result": 90, "unit": "%"}, {"measurement": "Survival Differential (Treatment-Vehicle)", "setting": "[2]; [22]", "result": 50, "unit": "%"}, {"measurement": "Survival treatment", "setting": "[2]; [22]", "result": 70, "unit": "%"}, {"measurement": "Survival Differential (Treatment-Vehicle)", "setting": "[2]; [23]", "result": 92, "unit": "%"}, {"measurement": "Survival treatment", "setting": "[2]; [23]", "result": 92, "unit": "%"}, {"measurement": "Survival Differential (Treatment-Vehicle)", "setting": "[2]; [24]", "result": 96, "unit": "%"}, {"measurement": "Survival treatment", "setting": "[2]; [24]", "result": 96, "unit": "%"}, {"measurement": "Survival Differential (Treatment-Vehicle)", "setting": "[2]; [25]", "result": 33, "unit": "%"}, {"measurement": "Survival treatment", "setting": "[2]; [25]", "result": 54, "unit": "%"}, {"measurement": "Survival Differential (Treatment-Vehicle)", "setting": "[2]; [26]", "result": 100, "unit": "%"}, {"measurement": "Survival treatment", "setting": "[2]; [26]", "result": 100, "unit": "%"}, {"measurement": "Survival Differential (Treatment-Vehicle)", "setting": "[2]; [27]", "result": 90, "unit": "%"}, {"measurement": "Survival treatment", "setting": "[2]; [27]", "result": 90, "unit": "%"}, {"measurement": "Survival Differential (Treatment-Vehicle)", "setting": "[2]; 10.5 Gy, 0.3 mg/kg single dose, Pre −24 hr", "result": 95, "unit": "%"}]}]}
